In patent US20020082273A1, “Agents for use in the treatment of alzheimer's disease” (priority 1998, published 2002):
Marks after values point to notes of the source that are not given here.

Legend:
Aβ = test: Effect of agents on Cu^2+-induced SDS-resistant Aβ polymerization; assay type: biochemical, human
Experimental: Cu^2+-induced SDS-resistant oligomerization of Aβ: Aβ (2.5 μM), 150 mM NaCl, 20 mM hepes (pH 6.6, 7.4, 9) with or without ZnCl2 or CuCl2. Following incubation (37° C.), aliquots of each reaction (2 ng peptide) were collected at 0 d, 1 d, 3 d and 5 d and western blotted using anti-Aβ monoclonal antibody 8E10 (FIG. 9). Migration of the molecular size markers are indicated (kDa). […] Cu^2+ (2-30 μM) induced SDS-resistant polymerization of peptide. […] It should be noted that other means of visualizing and/or determining the presence or absence of polymerization other than western blot analysis may be used. Such other means include but are not limited to density sedimentation by centrifugation of the samples.
It is possible that the decreased polymerization may be due to chelation of Cu^2+ by BC, however given the low binding affinity of BC for Cu^2+ compared with Aβ, it seems likely that the chelation of Cu^+ by BC prevents it from inducing SDS-resistant Ad polymerization. Therefore, Aβ may undergo a hydroxyl radical modification that promotes its assembly into SDS-resistant polymers.

[1] = Table 1; K=[ML]/[M][L]; cited from earlier work
[2] = cited from earlier work
[3] = Residual metals in post-centrifugation pellets of brain homogenates (ICP-AES); assay type: biochemical, human; set-up: Residual Metal Levels, Mg: unit not given here; details: for Residual Al in extracted pellet / Residual Ca in extracted pellet / Residual Cu in extracted pellet / Residual Fe in extracted pellet / Residual Mg in extracted pellet / Residual Zn in extracted pellet: Table 6
[4] = system: Aβ deposits of AD-affected brain; test: Extraction (solubilization) of Aβ from post-mortem AD brain tissue homogenates, western blot densitometry; assay type: biochemical, human; details: for Effect of Chelators upon extraction of Aβ (% change from control): mean n = 6 AD brain samples, above PBS extraction alone
Experimental: Identical regions of frontal cortex (0.5 g) from post-mortem brains of individuals with AD, as well as non-AD conditions, were homogenized in TBS, […] ±metal chelators.
0.5 g of prefrontal cortex was dissected and homogenized in PBS ±chelator as indicated. The homogenate was then centrifuged (100,000 g) and the supernatant removed, and a sample taken for western blot assay using anti-Aβ specific antibodies after Tricine PAGE. Densitometry was performed against synthetic peptide standards.
Densitometry of Aβ western blots (FIGS. 19A-19C) was performed for a series of 6 AD brain samples homogenized in the presence of chelators as indicated.
Next the ability of clioquinol to extract Aβ deposits from human brain was examined. […] Fragments of prefrontal cortex from individual post-mortem samples with the histopathological diagnosis of AD were homogenized in PBS, pH 7.4, and then pelleted after centrifugation. The pellets were then washed with agitation twice for 30 minutes, 4° C., with PBS or PBS containing clioquinol (100% =0.8 μM clioquinol). The suspension was then pelleted (10,000 g for 30 minutes) and the supernatant removed (S1) for western blot analysis using Aβ-specific antibodies (illustrated). The pellet was treated a second time in this experiment with agitation and centrifugation, and the second supernatant (S2) analysed.
Soluble Aβ (ng/g tissue) was determined as described. Total Aβ was determined following formic acid extraction of otherwise untreated tissue.
(§1) Suitable quantities of gray matter from each subject were minced to serve as pools of homogenous tissue. […] To obtain the soluble fraction, the homogenates were centrifuged at 100,000× g for 30 min (Beckman J180, Beckman instruments, Fullerton, California) and the supernatant collected in 1 ml aliquots and stored on ice or immediately frozen at −70° C. In each experiment, all protein was precipitated from 1 ml of supernatant from each treatment group using 1:5 ice cold 10% trichloracetic acid and pelleted in a bench top microfuge (Heraeus, Osteroder, Germany) at 10,000× g. The remaining pellet was frozen at −70° C.
Precipitated protein was subjected to SDS polyacrylamide gel electrophoresis (SDS-PAGE) on Novex pre-cast 10-20% Tris-Tricine gels followed by Western transfer onto 0.2 μm nitrocellulose membrane (Biorad, Hercules, Calif.). […] Each gel included two or more lanes containing known quantities of synthetic Aβ which served as internal reference standards. Blot images were captured by a Relisys scanner with transparency adapter (Teco Information Systems, Taiwan, ROC) and densitometry conducted using the NIH Image 1.6 program (National Institutes for Health, USA. Modified for PC by Scion Corporation, Frederick, Md.), calibrated using a step diffusion chart. For quantitation of Aβ in brain extracts, the internal reference standards of synthetic Aβ were utilized to produce standard curves from which values were interpolated.

[5] = cited from earlier work; remark: listed apart in the source
[6] = cited from earlier work; remark: listed apart in the source
[7] = cited from earlier work; remark: listed apart in the source
[8] = Table 1; K=[ML]/[M][L]; cited from earlier work; remark: listed apart in the source
[9] = system: Aβ deposits of age-matched control brain; test: Extraction of Aβ from age-matched non-AD control brain tissue; assay type: biochemical, human; details: chelator 2 mM
Experimental: as §1
Precipitated protein was subjected to SDS polyacrylamide gel electrophoresis (SDS-PAGE) on Novex pre-cast 10-20% Tris-Tricine gels followed by Western transfer onto 0.2 μm nitrocellulose membrane (Biorad, Hercules, Calif.). Aβ was detected using the WO2, G210 or G211 monoclonal antibodies (Ida, N., et al., J. Biol. Chem., 271:22908 (1996)) in combination with HRP-conjugated rabbit anti-mouse IgG (Dako, Denmark), and visualized using chemiluminescence (ECL, Amersham Life Science, Little Chalfont, Buckinghamshire, UK). Each gel included two or more lanes containing known quantities of synthetic Aβ which served as internal reference standards. Blot images were captured by a Relisys scanner with transparency adapter (Teco Information Systems, Taiwan, ROC) and densitometry conducted using the NIH Image 1.6 program (National Institutes for Health, USA. Modified for PC by Scion Corporation, Frederick, Md.), calibrated using a step diffusion chart. For quantitation of Aβ in brain extracts, the internal reference standards of synthetic Aβ were utilized to produce standard curves from which values were interpolated.

[10] = Table 1; K=[ML]/[M][L]; cited from earlier work; remark: listed apart in the source
[11] = Table 3, TPEN 0.1 mM, AD (n=6) and healthy controls (n=4)
[12] = Table 7, 10 AD specimens, 0.1 mM TPEN

## Cl.O=C(O)CCP(CCC(=O)O)CCC(=O)O [TCEP, Tris(2-Carboxyethyl)-Phosphine Hydrochloride]
Aβ
  effect on Cu^2+-induced SDS-resistant Aβ polymerization: significantly reduced the level of polymerization

## c1ccc(CN(CCN(Cc2ccccn2)Cc2ccccn2)Cc2ccccn2)nc1 [TPEN, N,N,N′,N′-tetrakis [2-pyridyl-methyl] ethylenediamine]
[1]
  LogK, Mg: 0
[2]; Table 1, K=[ML]/[M][L]
  LogK, Zn: 15.4
[2]; Table 5, NIST database
  Stability constant logK10, Zn: 15.4
[3]; [11]
  Residual Al in pellet: 65 mg/kg
  Residual Ca in pellet: (210) mg/kg
  Residual Cu in pellet: 9.8 mg/kg
  Residual Fe in pellet: 239 mg/kg
  Residual Mg in pellet: 230 mg/kg
  Residual Zn in pellet: 33.2* mg/kg
[3]; chelator 0.001 mM
  Residual Al in extracted pellet: 34 mg/kg
  Residual Ca in extracted pellet: 490 mg/kg
  Residual Cu in extracted pellet: 12 mg/kg
  Residual Fe in extracted pellet: 512 mg/kg
  Residual Mg in extracted pellet: 192 mg/kg
  Residual Zn in extracted pellet: 42 mg/kg
[3]; chelator 0.004 mM
  Residual Al in extracted pellet: 22 mg/kg
  Residual Ca in extracted pellet: 322 mg/kg
  Residual Cu in extracted pellet: 10 mg/kg
  Residual Fe in extracted pellet: 317 mg/kg
  Residual Mg in extracted pellet: 147 mg/kg
  Residual Zn in extracted pellet: 28 mg/kg
[3]; chelator 0.04 mM
  Residual Al in extracted pellet: 22 mg/kg
  Residual Ca in extracted pellet: 956 mg/kg
  Residual Cu in extracted pellet: 10 mg/kg
  Residual Fe in extracted pellet: 322 mg/kg
  Residual Mg in extracted pellet: 201 mg/kg
  Residual Zn in extracted pellet: 22 mg/kg
[3]; chelator 0.1 mM
  Residual Al in extracted pellet: 60 mg/kg
  Residual Ca in extracted pellet: 708 mg/kg
  Residual Cu in extracted pellet: 12 mg/kg
  Residual Fe in extracted pellet: 389 mg/kg
  Residual Mg in extracted pellet: 200 mg/kg
  Residual Zn in extracted pellet: 21 mg/kg
[3]; chelator 2.0 mM
  Residual Al in extracted pellet: 148 mg/kg
  Residual Ca in extracted pellet: 419 mg/kg
  Residual Cu in extracted pellet: 11 mg/kg
  Residual Fe in extracted pellet: 376 mg/kg
  Residual Mg in extracted pellet: 200 mg/kg
  Residual Zn in extracted pellet: 19 mg/kg
[3]; chelator 5.0 mM
  Residual Al in extracted pellet: 16 mg/kg
  Residual Ca in extracted pellet: 377 mg/kg
  Residual Cu in extracted pellet: 10 mg/kg
  Residual Fe in extracted pellet: 307 mg/kg
  Residual Mg in extracted pellet: 205 mg/kg
  Residual Zn in extracted pellet: 17 mg/kg
[3]; [12]
  Residual Metal Levels, Al: 65
  Residual Metal Levels, Ca: 210
  Residual Metal Levels, Cu: 9.8
  Residual Metal Levels, Fe: 239
  Residual Metal Levels, Mg: 230
  Residual Metal Levels, Zn: 33.2
[4]; 0.1 mM chelator
  Effect of Chelators upon extraction of Aβ (% change from control): 182%
[4]; 2.0 mM chelator
  Effect of Chelators upon extraction of Aβ (% change from control): 241%
[4]; 6 AD brains, 0.1 or 2.0 mM
  mean increase of Aβ solubilization over PBS alone: around 2 fold
[4]; AD subject 1, chelator 2 mM
  Extractable Aβ: 0.21 µg/g
  Extractable Aβ (% of total): (0.2) %
[4]; AD subject 2, chelator 2 mM
  Extractable Aβ: 3.40 µg/g
  Extractable Aβ (% of total): (4.4) %
[4]; AD subject 3, chelator 2 mM
  Extractable Aβ: 1.80 µg/g
  Extractable Aβ (% of total): (2.25) %
[4]; AD subject 4, chelator 2 mM
  Extractable Aβ: 5.50 µg/g
  Extractable Aβ (% of total): (9.2) %
[4]; AD subject 5, chelator 2 mM
  Extractable Aβ: 5.00 µg/g
  Extractable Aβ (% of total): (3.5) %
[4]; AD subject 6, chelator 2 mM
  Extractable Aβ: 0.28 µg/g
  Extractable Aβ (% of total): (1.75) %
[4]; AD subjects 1-6, chelator 2 mM
  Extractable Aβ (% of total), X (mean): (4.6) %
  Extractable Aβ, X (mean): 2.73 µg/g
[4]; AD tissue, chelator 2 mM
  X C/PBS (mean chelator / PBS): 2.60
[4]; neutral saline buffer, TPEN 5 μM
  efficiency in extracting Aβ: highly efficient
[5]; Table 1, K=[ML]/[M][L]
  LogK, Fe: 14.4
[5]; Table 5, NIST database
  Stability constant logK10, Fe: 14.4
[6]; Table 1, K=[ML]/[M][L]
  LogK, Ca: 3.0
[6]; Table 5, NIST database
  Stability constant logK10, Ca: 3
[7]; Table 1, K=[ML]/[M][L]
  LogK, Cu: 20.2
[7]; Table 5, NIST database
  Stability constant logK10, Cu: 20.2
[8]
  LogK, Al: 0
[9]; AC subject 1
  Extractable Aβ: 0.22 µg/g
  Extractable Aβ (% of total): (32.0) %
[9]; AC subject 2
  Extractable Aβ: 0.38 µg/g
  Extractable Aβ (% of total): (9.0) %
[9]; AC subject 3
  Extractable Aβ: 0.26 µg/g
  Extractable Aβ (% of total): (9.7) %
[9]; AC subject 4
  Extractable Aβ: 0.09 µg/g
  Extractable Aβ (% of total): (3.0) %
[9]; AC subject 5
  Extractable Aβ: 1.06 µg/g
  Extractable Aβ (% of total): (29.5) %
[9]; AC subjects 1-5
  Extractable Aβ (% of total), X (mean): (16.7) %
  Extractable Aβ, X (mean): 0.40 µg/g
[9]; age-matched control tissue
  X C/PBS (mean chelator / PBS): 1.6
[10]
  LogK, Co: 0

## O=S([O-])S(=O)(=O)[O-].[Na+].[Na+] [sodium metabisulfite]
Aβ
  effect on Cu^2+-induced SDS-resistant Aβ polymerization: moderately attenuates
